In test [1] the test system is U251 malignant glioblastoma human cell line. Kind of test: U251 cell growth in zymosan-activated human serum (MTT cell viability). The conditions noted are these: 15% human serum, 1 μg/mL zymosan, 72 h, n=4, read-out: IC50, inhibition of U251 cell growth induced by zymosan-activated human serum complement. The test is classed as cell-based. The protocol:
To obtain normal serum, blood samples from healthy individuals were treated at 37° C. for 3 h to promote clotting. Samples were then centrifuged at 3,000 g for 10 min and the clear serum was harvested.
The ATAC used comprised approximately 78% ATA, 15% AQA, and 7% AHA. In addition, ATA, AQA and AHA that had been separated by size exclusion chromatography were also tested individually, their purity having been verified by mass spectrometry.
U251 cells were grown in DMEM medium containing 10% fetal bovine serum (FBS), 100 IU/mL penicillin, and 100 μg/mL streptomycin (Invitrogen™, Carlsbad, Ca.) under humidified 5% CO2 and 95% air until confluence was reached. This usually required 3 days of incubation. Aliquots of these cells (˜2×10^5 cells) were added to 24-well plates.
Experiment 1 was designed to determine the effect of ATA, AHA, AQA and ATAC on U251 cell growth in the presence of complement activated human serum. In Experiment 1(a), U251 cells were treated with various concentrations of human serum (1, 5, 7.5, 10, 12.5, 15%) in DMEM and incubated with 1 μg/mL zymosan at 37° C. for 72 h. Control U251 cells (CON) were incubated in fresh DMEM only. As a further control U251 cells were treated with 10% human serum heated at 56° C. for 30 min to heat inactivate complement (HIS) before incubation with 1 μg/ml zymosan. In Experiment 1(b), U251 cells were treated with various concentrations of ATAC, ATA, AQA and AHA (0.1, 1, 5, 10, 30, 50 μM) in DMEM with 15% human serum and incubated with 1 μg/mL zymosan at 37 ° C. for 72 h. In both Experiments 1(a) and 1(b), following incubation, cell viability was evaluated by MTT (3-[4,5-dimethylthiazol-2-yl]-2,5 diphenyl tetrazolium bromide) assays by adding MTT to the cell cultures to reach a final concentration of 1 mg/mL. […] Plates were subsequently incubated overnight at 37° C. and optical densities at 570 nm were measured by transferring 100 μL aliquots to 96-well plates and using a plate reader with a corresponding filter.

In test [2] the test system is BxPC-3 human pancreatic adenocarcinoma cell line. Kind of test: BxPC-3 cell growth in zymosan-activated human serum (MTT cell viability). The test is classed as cell-based. The note with it: BxPC-3 cells, RPMI 1640, 15% human serum, 1 μg/mL zymosan, 72 h, n=4, read-out: IC50, inhibition of BxPC-3 cell growth induced by zymosan-activated human serum complement. The protocol:
(§1) Experiment 1 was designed to determine the effect of ATA, AHA, AQA and ATAC on U251 cell growth in the presence of complement activated human serum. In Experiment 1(a), U251 cells were treated with various concentrations of human serum (1, 5, 7.5, 10, 12.5, 15%) in DMEM and incubated with 1 μg/mL zymosan at 37° C. for 72 h. Control U251 cells (CON) were incubated in fresh DMEM only. As a further control U251 cells were treated with 10% human serum heated at 56° C. for 30 min to heat inactivate complement (HIS) before incubation with 1 μg/ml zymosan. In Experiment 1(b), U251 cells were treated with various concentrations of ATAC, ATA, AQA and AHA (0.1, 1, 5, 10, 30, 50 μM) in DMEM with 15% human serum and incubated with 1 μg/mL zymosan at 37 ° C. for 72 h. In both Experiments 1(a) and 1(b), following incubation, cell viability was evaluated by MTT (3-[4,5-dimethylthiazol-2-yl]-2,5 diphenyl tetrazolium bromide) assays by adding MTT to the cell cultures to reach a final concentration of 1 mg/mL. Following a 1 h incubation at 37° C., the dark crystals formed were dissolved by adding a SDS/DMF extraction buffer (300 μL, 20% sodium dodecyl sulfate, 50% N,N-dimethylformamide, pH 4.7). Plates were subsequently incubated overnight at 37° C. and optical densities at 570 nm were measured by transferring 100 μL aliquots to 96-well plates and using a plate reader with a corresponding filter.
Experiment 5 was designed to determine the effect of ATA, AHA, AQA and ATAC on BxPC-3 cell growth in the presence of complement activated human serum.

Test [3] concerns BxPC-3 cells. The test can be described thus: Lactic dehydrogenase release from BxPC-3 cells. The test is classed as cell-based, human. The note with it: n=4, read-out: IC50, lactate dehydrogenase release from BxPC-3 cells. The protocol: (§2) Experiment 4 was designed to confirm apoptotic cell death of U251 cells induced by ATA, AQA, AHA, and ATAC by measuring release of lactic dehydrogenase into the cell medium. For serum lactate dehydrogenase determination, reaction supernatants ([…]) were pipetted into the wells of 96-well plates, followed by the addition of […] lactate solution (36 mg/mL in PBS) and […] INT (iodonitrotetrazolium chloride, 2-(4-iodophenyl)-3-(4-nitrophenyl)-5-phenyl-2H-tetrazolium chloride) solution (2 mg/mL in PBS). The enzymatic reaction was started by addition of […] of NAD^+/diaphorase solution (3 mg/mL NAD^+; 2.3 mg solid/mL diaphorase). After 1 h, optical densities were measured with a microplate reader using a 490 nm filter. The amount of LDH released was expressed as a percentage of the value obtained in comparative cells where cells were 100% lysed by 1% Triton X-100.
Experiment 8 was designed to confirm apoptotic cell death of BxPC-3 cells induced by ATA, AQA, AHA, and ATAC by the release of lactic dehydrogenase into the cell medium.

Test [4] deals with human colorectal adenocarcinoma cell line LS180. Kind of test: LS180 cell growth in zymosan-activated human serum (MTT cell viability). The conditions noted are these: LS180 cells, EMEM, 15% human serum, n=4, read-out: IC50, inhibition of LS180 cell growth induced by zymosan-activated human serum complement. The class given is cell-based. The protocol:
as §1
Experiment 19 was designed to determine the effect of ATA, AQA, AHA and ATAC on growth of the human colorectal adenocarcinoma LS180 cell line. The protocol was identical to that used in Experiment 17(b) except that colorectal adenocarcinoma cells were utilized and the growth medium was EMEM.

For test [5], the system named is colorectal adenocarcinoma LS180 cells. The test can be described thus: Lactic dehydrogenase release from LS180 cells. The test is classed as cell-based, human. The conditions noted are these: n=4, read-out: IC50, lactate dehydrogenase release from LS180 cells. The protocol:
as §2
Experiment 20 was designed to determine if apoptotic death of colorectal adenocarcinoma LS180 cells was induced by ATA, AQA, AHA, and ATAC as determined by the release of lactic dehydrogenase into the cell medium. The protocol was identical to that used in Experiment 18(b) except that colorectal adenocarcinoma cells were used.

Test [6] relates to human bone osteosarcoma MNNG cells. The test can be described thus: MNNG cell growth in zymosan-activated human serum (MTT cell viability). The class given is cell-based. The conditions noted are these: 15% human serum, n=4, read-out: IC50, inhibition of MNNG cell growth induced by zymosan-activated human serum complement. The protocol: as §1
Experiment 21 was designed to determine the effect of ATA, AQA, AHA and ATAC on growth of the human bone osteosarcoma MNNG cell line. The protocol was identical to that used in Experiment 19 (b) except that human bone osteosarcoma MNNG cells were utilized.

Test [7] relates to human colorectal cancer cell line SW 480. The test can be described thus: SW 480 cell growth in zymosan-activated human serum (MTT cell viability). The note with it: 15% human serum, n=4, read-out: IC50, inhibition of SW 480 cell growth induced by zymosan-activated human serum complement. The test is classed as cell-based. The protocol: as §1
(§3) Experiment 23 was designed to determine the effect of ATA, AQA, 15 AHA and ATAC on growth of the human colorectal cancer cell line SW 480. The protocol was identical to that used in Experiment 15(b) except that human colorectal cancer SW480 cells were utilized. Experiment 24 was designed to determine if apoptotic death of human carcinoma SW 480 cells was induced by ATA, AQA, AHA, and ATAC as determined by the release of lactic dehydrogenase into the cell medium. The protocol was identical to that used in Experiment 15(d) except that human carcinoma SW480 cells were used and the growth medium was DMEM.

For test [8], the system named is human carcinoma SW 480 cells. Kind of test: Lactic dehydrogenase release from SW 480 cells. The test is classed as cell-based. The conditions noted are these: n=4, read-out: IC50, lactate dehydrogenase release from SW 480 cells. The protocol:
as §2, §3

Like-named read-outs stand apart in the source and are kept apart here.

In the case of `O=C(O)C1=CC(=C(c2ccc(O)c(C(=O)O)c2)c2ccc(O)c(C(=O)O)c2)C=CC1=O` [ATA, aurin tricarboxylic acid], the IC50 is 3.5 µM in test [1] (U-251, U251 cells); 6.5 µM in test [2]; 7.9 µM in test [3] (Homo sapiens); 4.8 µM in test [4]; 4.9 µM in test [5] (Homo sapiens); 7.2 µM in test [6]. Also, the IC50 was determined as 7 µM in test [7] (SW480, SW 480 cells) and 4.7 µM in test [8] (Homo sapiens, SW480, DMEM).
As for aurin hexacarboxylic acid [AHA], the IC50 in test [1] (U251 cells) amounted to 3.8 µM; in test [2] it was 6.8 µM; in test [3], 8.1 µM; in test [4] it was 5.1 µM; in test [5], 5 µM; in test [6], 7.5 µM. In addition, the figures for the IC50 in test [7] (SW 480 cells) and in test [8] (DMEM) were 6.8 µM and 4.9 µM, respectively.
For the compound aurin quadracarboxylic acid [AQA], the IC50 in test [1] (U251 cells) was 3.7 µM; in test [2] it was 6.7 µM; in test [3] it was 8 µM; in test [4], 5.2 µM; in test [5] it was 5.1 µM; in test [6], 7.4 µM. For the same compound, the IC50 in test [7] (SW 480 cells) was 7 µM; in test [8] (DMEM) it was 4.6 µM.

Usually IC50 stands for the concentration that gives 50% inhibition.

The values are drawn from patent US10653651B2, “Kit for treating cancer with low molecular weight components of aurin tricarboxylic acid complex” (Aurin Biotech Inc., priority 2014, dated 2020).
